Measurements: the NIST ThermoML archive (doi:10.1021/je060420p)

Columns and labels:
[1] = refractive index (Na D-line) (dimensionless); settings: 101.33 kPa, Liquid, Standard Abbe refractometry
[2] = 101.33 kPa, Liquid
[3] = excess molar enthalpy (molar enthalpy of mixing); xn = mol fraction of the nth substance listed; settings: 101 kPa, Liquid, Calvet calorimetry

Cc1ccc(C(C)C)cc1 [1-(1-methylethyl)-4-methylbenzene]
Settings | mass density, 298.15 K [kg/m3] | mass density, 308.15 K [kg/m3] | mass density, 318.15 K [kg/m3] | refractive index, 298.15 K | refractive index, 308.15 K | refractive index, 318.15 K
[1] | – | – | – | 1.4878 | 1.4831 | 1.4789
[2] | 853.47 | 845.59 | 838.46 | – | – | –

CC1=CCC2CC1C2(C)C (centres undefined) [2-pinene]
Settings | mass density, 298.15 K [kg/m3] | mass density, 308.15 K [kg/m3] | mass density, 318.15 K [kg/m3] | refractive index, 298.15 K | refractive index, 308.15 K | refractive index, 318.15 K
[1] | – | – | – | 1.4626 | 1.4581 | 1.4542
[2] | 854.03 | 845.79 | 838.64 | – | – | –

CC1=CCC2CC1C2(C)C (centres undefined) [2-pinene] + C=C1CCC2CC1C2(C)C
[3]
Settings | excess molar enthalpy [kcal/mol]
298.15 K, x1 = 0.2012 | 0.00167
298.15 K, x1 = 0.3013 | 0.0022
298.15 K, x1 = 0.3987 | 0.00253
298.15 K, x1 = 0.4993 | 0.00265
298.15 K, x1 = 0.5994 | 0.00246
298.15 K, x1 = 0.7023 | 0.00227
298.15 K, x1 = 0.7998 | 0.00174
308.15 K, x1 = 0.2 | 0.00179
308.15 K, x1 = 0.3004 | 0.00241
308.15 K, x1 = 0.3999 | 0.00272
308.15 K, x1 = 0.5006 | 0.00284
308.15 K, x1 = 0.6013 | 0.00261
308.15 K, x1 = 0.6972 | 0.00237
308.15 K, x1 = 0.7998 | 0.00177
318.15 K, x1 = 0.2003 | 0.0021
318.15 K, x1 = 0.3001 | 0.00268
318.15 K, x1 = 0.4034 | 0.00304
318.15 K, x1 = 0.5 | 0.00315
318.15 K, x1 = 0.6004 | 0.00301
318.15 K, x1 = 0.7012 | 0.00272
318.15 K, x1 = 0.7975 | 0.00201

C=C1CCC2CC1C2(C)C (stereo not drawn) [β-pinene]
Settings | mass density, 298.15 K [kg/m3] | mass density, 308.15 K [kg/m3] | mass density, 318.15 K [kg/m3] | refractive index, 298.15 K | refractive index, 308.15 K | refractive index, 318.15 K
[1] | – | – | – | 1.476 | 1.4714 | 1.4665
[2] | 867.06 | 859.08 | 852.08 | – | – | –
